Data set [1] has as its system Jurkat IκB-Bla cells. The data set can be described thus: Responsiveness of Jurkat IκB-Bla cells to proinflammatory treatments that activate the NFκB pathway. It is filed as cell-based. The procedure: The responsiveness of the Jurkat IκB-Bla cells to proinflammatory treatments known to activate the NFκB pathway was tested. Cells were treated with 10 ng/ml TNFα, 10 nM PMA, 10 μg/ml PHA or 100 ng/ml IL-1β for the times indicated in FIG. 8A and then loaded with CCF2 and read on a fluorescence plate reader. […] The apparent insensitivity to IL-1β may be explained by low expression of IL-1 receptor in Jurkat cells.
To establish that the TNFα-stimulated decrease in β-lactamase activity was due to phosphorylation of IκB on serines-32 and -36, the responsiveness of Jurkat cells expressing the S32A, S36A IκB mutant as a fusion with β-lactamase was tested. The IκB(S32A, S36A)-Bla cell line was created exactly as described above for wild-type IκB-Bla cells. The cells were treated with 10 ng/ml TNFα for 30 minutes and then loaded with CCF2/AM. As shown in the comparison of wild-type construct to mutant in FIGS. 9A and 9B, respectively, the mutation of serines-32 and -36 abolished the decrease in β-lactamase activity in response to TNFα treatment.

Data set [2] concerns proteasome. The data set can be described thus: Jurkat IκB-Bla reporter assay, inhibition of the TNFα-stimulated decrease in reporter level by proteasome inhibitors. It is filed as cell-based, Human. Conditions: 10 μM, no TNFα; FIG. 10. The method, then: (§1) Therefore, the requirement of proteasome activity on β-lactamase activity was tested. […] Reporter activity was determined using CCF2/AM.
(In general: Reporter assays use an easily measured gene product as a stand-in for the process of interest.)

Data set [3] addresses T1, proteasome (Homo sapiens, UniProt P28074).
T1 construct: other: Jurkat IκB-Bla cells, TNFα stimulation; effect on the TNFα-stimulated decrease in reporter level; other: 10 μM for 60 minutes prior to TNFα 10 ng/ml; CCF2/AM
T1 sequence (P28074 60-263): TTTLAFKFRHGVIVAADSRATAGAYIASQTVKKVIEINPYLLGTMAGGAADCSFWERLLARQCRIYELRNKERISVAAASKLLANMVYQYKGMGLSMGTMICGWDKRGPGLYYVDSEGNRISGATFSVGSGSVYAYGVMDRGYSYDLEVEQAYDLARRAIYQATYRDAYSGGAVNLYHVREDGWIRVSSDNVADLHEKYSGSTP
T1 sequence (P28072 35-239 partner): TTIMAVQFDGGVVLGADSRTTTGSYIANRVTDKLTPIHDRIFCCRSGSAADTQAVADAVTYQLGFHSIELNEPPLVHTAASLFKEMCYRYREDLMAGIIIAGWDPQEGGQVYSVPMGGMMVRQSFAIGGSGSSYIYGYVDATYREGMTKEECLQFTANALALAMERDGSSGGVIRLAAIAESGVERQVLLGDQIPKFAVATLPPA
T1 sequence (Q99436 44-277 partner): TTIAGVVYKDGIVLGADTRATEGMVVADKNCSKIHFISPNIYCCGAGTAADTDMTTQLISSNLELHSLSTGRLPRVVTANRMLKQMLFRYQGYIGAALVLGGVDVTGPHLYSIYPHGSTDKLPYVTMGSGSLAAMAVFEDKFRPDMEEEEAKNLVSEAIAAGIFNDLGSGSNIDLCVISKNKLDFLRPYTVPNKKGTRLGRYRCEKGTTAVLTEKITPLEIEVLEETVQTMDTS
The description is as above. It is filed as cell-based. The procedure: as §1

From patent US7250268B2, “Assay for measuring IκB kinase activity and identifying IκB kinase modulators” (Bristol-Myers Squibb Company, priority 2003, dated 2007) come the findings set out here.

Where a SMILES comes first, the peptide text is derived from it. [ ]: non-standard residue; d: D form. The star is where a group is joined. Nle = CCCC[C@H](N)C(=O)O; Cbz = O=C(OCc1ccccc1)*

`C[C@@H]1C[C@@H]([C@H](O)CC2CC(=O)NC(=O)C2)C(=O)[C@@H](C)C1` [cycloheximide]: in data set [1] (100 μg/ml added at the time of TNFα addition (10 ng/ml, 30 minutes), FIG. 9), the “effect of blocking protein synthesis on the TNFα-stimulated decrease in β-lactamase activity” value is listed as “did not have a strong synergistic effect”.

As for `CC(C)C[C@@H](C=O)NC(=O)[C@H](CC(C)C)NC(=O)[C@H](CC(C)C)NC(=O)OCc1ccccc1` [MG132] (Cbz-Leu-Leu-Leu-aldehyde), in data set [2], the “effect of inhibitor alone on reporter levels” value is recorded as “little to no effect”. For the same compound, the “effect on the TNFα-stimulated decrease in reporter level” value in data set [3] (10 μM for 60 minutes prior to TNFα 10 ng/ml, CCF2/AM, FIG. 10) is listed as “efficiently inhibited”.

“IL-1β: proinflammatory cytokine; low IL-1 receptor expression in Jurkat cells suggested”: the “response of IκB-Bla reporter level (β-lactamase activity) to treatment” value in data set [1] (10 nM PMA, 10 μg/ml PHA or 100 ng/ml IL-1β, extended treatment for PMA and PHA, FIG. 8A) is “insensitivity”.

What is called IC50 is the midpoint of a concentration-inhibition curve. As to `CCCC[C@@H](C=O)NC(=O)[C@H](CC(C)C)NC(=O)[C@H](CC(C)C)NC(C)=O` [ALLN] (Ac-Leu-Leu-[Nle]-aldehyde), the IC50 in data set [3] (Jurkat IκB-Bla cells, TNFα stimulation, data not shown, read-out: IC50 for inhibition of the TNFα-stimulated decrease in reporter levels) worked out at 5 µM.

For TNFα, the “decrease in β-lactamase activity” value in data set [1] (10 ng/ml, within 30 minutes, CCF2, FIG. 8A) was 2 fold.
